# In patent US20240327384A1, “SALTS AND SOLID STATE FORMS OF A KIF18A INHIBITOR COMPOUND” (Amgen Inc., priority 2021, published 2024):
# Like-named read-outs stand apart in the source and are kept apart here. Marks after values point to notes of the source that are not given here.
# Columns and labels:
# [1] = Intrinsic dissolution rate (IDR) test; type: physicochemical
# Dog cross-over PK study = type: in vivo
# Experimental: A total of 3 male dogs were initially assigned to study. All animals were fasted for at least eight hours prior to dosing and through the first four hours of blood sample collection (food was returned within 30 minutes following the collection of the last blood sample at the 4 hour collection interval, if applicable).
# Each animal receiver an oral gavage dose (PO) of the appropriate test article solution containing Compound A as outlined in the following study design table. Oral gavage dosing solutions were continuously stirred throughout dosing. The gavage tubes were rinsed with approximately 10 mL of tap water following dosing (prior to removal of the gavage tube). There was a minimum of 10-day washout period between doses for each phase.
# [2] = Dynamic vapor sorption (moisture sorption, hygroscopicity); type: physicochemical; settings: for DVS weight gain: by 95% RH
# Experimental: Moisture sorption data was collected using a VTI SGA 100 symmetrical vapor sorption analyzer. A sample size of approximately 5 mg to 10 mg was used in a platinum pan. Hygroscopicity was evaluated from 5% RH to 95% RH in increments of 5% RH. Data for adsorption and desorption cycles were collected. […] Dynamic Vapor Sorption (DVS): Moisture sorption data was collected using a Surface Measurement Systems […] instrument. Equilibrium criteria were set at ±0.001% weight change in 10 minutes with a maximum equilibrium time of 360 minutes.
# [3] = Solubility and powder dissolution in FaSSGF, FaSSIF, FeSSIF, water (Example 44); type: physicochemical; settings: for Sol (pH), Water (first value pair after FeSSIF): pH 1.14 (HCl Form 1), pH 1.08 (Variable Hydrate Form 2); for Sol (pH), Water (first value pair after FeSSIF) / Sol (pH), Water (second value pair after FeSSIF): head of medium unclear; for Sol (pH), Water (second value pair after FeSSIF): pH 1.58 (HCl Form 1), pH 1.64 (Variable Hydrate Form 2)
# Experimental: Solubilities of various forms of the Compound A and the Compound A-HCl Form 1 were measured in Fasted State Simulated Gastric Fluid (FaSSGF), Fasted State Simulated Intestinal Fluid (FaSSIF), fed state simulated intestinal fluid […], and water.
# KIF18A = biological target: T1, KIF18A (Homo sapiens, UniProt Q8NI77); assay: KIF18A ATPase inhibition; type: biochemical
# T1 sequence (Q8NI77 1-898): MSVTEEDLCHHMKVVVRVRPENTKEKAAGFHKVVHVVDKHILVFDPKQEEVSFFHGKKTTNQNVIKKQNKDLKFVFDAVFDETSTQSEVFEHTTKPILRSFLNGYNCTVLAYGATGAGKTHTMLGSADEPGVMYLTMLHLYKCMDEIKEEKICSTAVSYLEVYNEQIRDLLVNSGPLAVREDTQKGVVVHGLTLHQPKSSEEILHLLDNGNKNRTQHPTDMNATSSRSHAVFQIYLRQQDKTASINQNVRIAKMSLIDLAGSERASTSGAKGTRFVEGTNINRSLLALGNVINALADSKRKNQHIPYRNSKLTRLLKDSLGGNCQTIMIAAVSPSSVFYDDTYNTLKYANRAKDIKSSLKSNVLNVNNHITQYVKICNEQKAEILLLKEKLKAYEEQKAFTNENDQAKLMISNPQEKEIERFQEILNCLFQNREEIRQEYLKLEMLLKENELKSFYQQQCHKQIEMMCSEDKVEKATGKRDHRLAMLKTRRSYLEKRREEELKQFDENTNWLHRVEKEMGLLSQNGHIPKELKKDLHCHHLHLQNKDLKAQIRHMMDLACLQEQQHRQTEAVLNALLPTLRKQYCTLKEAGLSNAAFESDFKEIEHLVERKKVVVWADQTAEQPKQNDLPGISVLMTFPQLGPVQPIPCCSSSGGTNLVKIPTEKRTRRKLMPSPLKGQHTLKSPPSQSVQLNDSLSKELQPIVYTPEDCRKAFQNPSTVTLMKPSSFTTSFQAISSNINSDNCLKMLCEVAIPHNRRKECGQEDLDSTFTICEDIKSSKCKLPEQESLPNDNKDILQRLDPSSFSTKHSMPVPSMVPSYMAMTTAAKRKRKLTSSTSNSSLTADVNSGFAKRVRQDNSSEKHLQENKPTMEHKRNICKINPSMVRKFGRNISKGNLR
# [4] = Solubility in crystallization solvent 80/20 acetone/water; type: physicochemical; settings: organic solvent or mixture; 80/20 (v/v) acetone/water, crystallization and slurry aging solvent
# Experimental: The process was unseeded and crystal growth occurs during the addition of hydrochloric acid to the Compound A solution. The final slurry was aged at ambient temperature for 10 h, then cooled to 10° C. prior to wet milling. Isolation of the milled material occurred at 10° C. followed by washing of the filter cake with 8 volumes of acetone. The material was dried at 40° C. under vacuum.
# pKa of ionizable groups = type: physicochemical
# Text: From high-throughput and manual polymorph screening, the present inventors generated various salts, hydrates, solvates, co-crystals of compound A; and a solid form of the Compound A, including crystalline anhydrous forms, salts, hydrates, solvates, and co-crystals thereof. […] Based on the solid-state properties of the free base forms of Compound A, and their inclinations to form solvates, the present inventors generated various salts, hydrates, solvates, and co-crystals of compound A that may be suitable for drug substance scale up and crystallization for pharmaceutical development.
# [5] = Solubility and powder dissolution of salts in FaSSIF (Example 46); type: physicochemical
# Text: All three salts can convert to the free base, but maintain supersaturation in FaSSIF for some time, which indicated a potential good absorption in vivo if used in a pharmaceutical dosage form.
# [6] = Polymorph/salt screening: solid form stability, conversion and solubility; type: physicochemical
# [7] = male dogs, fasted, PO 10 mg/kg, cross-over, listed as Amorphous Cmp A, 10 mg/kg
# [8] = male dogs, fasted, PO 10 mg/kg, cross-over, listed as Cmp A-Anhydrous Form 3, 10 mg/kg
# [9] = male, dog, plasma, po, 10 mg/kg, male dogs, fasted, cross-over, read-out: Tmax
# [10] = pH 1.6, solubility from powder dissolution measurements
# [11] = pH 6.5, solubility from powder dissolution measurements
# [12] = pH 5.0, solubility from powder dissolution measurements
# [13] = male, dog, plasma, po, 10 mg/kg, male dogs, fasted, cross-over
structure (smiles),measurement,setting,value
Cc1cc(NC(=O)c2ccc(NS(=O)(=O)CCO)cc2N2CCC3(CC2)CC3)nc(N2CCC(F)(F)CC2)n1 [Amorphous Compound A],IDR,[1]; listed as Amorphous Cmp A,36.2 ug/min*cm^2
same,AUCt,Dog cross-over PK study; [7],237 ± 68 µM·h
same,Cmax,Dog cross-over PK study; [7],6.9 ± 1.3 µM
same,Tmax,Dog cross-over PK study; [7],6.7 ± 2.3 h
Cc1cc(NC(=O)c2ccc(NS(=O)(=O)CCO)cc2N2CCC3(CC2)CC3)nc(N2CCC(F)(F)CC2)n1 [Anhydrous Compound A Form 3],DVS weight gain,[2],about 1.5%
same,"Sol (pH), FaSSGF","[3]; pH 1.6 (end of experiment), solubility from 2 hr time point",99.3 μg/mL
same,"Sol (pH), FaSSIF","[3]; pH 6.5 (end of experiment), solubility from 2 hr time point",87 μg/mL
same,"Sol (pH), FeSSIF","[3]; pH 5.0 (end of experiment), solubility from 2 hr time point",352 (5.0)* μg/mL
same,"Sol (pH), Water","[3]; Water, pH 8.0 (end of experiment), solubility from 2 hr time point",5.4 (8.0)* μg/mL
same,AUCt,Dog cross-over PK study; [8],69 ± 6 µM·h
same,Cmax,Dog cross-over PK study; [8],2.3 ± 0.2 µM
same,Tmax,Dog cross-over PK study; [9],4.7 ± 1.2 h
Cc1cc(NC(=O)c2ccc(NS(=O)(=O)CCO)cc2N2CCC3(CC2)CC3)nc(N2CCC(F)(F)CC2)n1 [Anhydrous Compound A Form 5],DVS observation in words,[2],rehydrated to the Compound A-Variable Hydrate Form 2
"Cc1cc(NC(=O)c2ccc(NS(=O)(=O)CCO)cc2N2CCC3(CC2)CC3)nc(N2CCC(F)(F)CC2)n1 [Compound A, 2-(6-azaspiro[2.5]octan-6-yl)-N-[2-(4,4-difluoropiperidin-1-yl)-6-methylpyrimidin-4-yl]-4-[(2-hydroxyethanesulfonyl)amino]benzamide]",ATPase activity inhibited (MT-ATPase vs basal ATPase),KIF18A,inhibits MT-ATPase activity and not basal ATPase activity
same,solubility,[4],~18 mg/mL
same,pKa,pKa of ionizable groups; read-out: weakly acidic pKa,7.3
same,pKa,pKa of ionizable groups; read-out: weakly basic pKa,3.9
Cc1cc(NC(=O)c2ccc(NS(=O)(=O)CCO)cc2N2CCC3(CC2)CC3)nc(N2CCC(F)(F)CC2)n1.Cl [Compound A-HCl Form 1],DVS weight gain,[2],less than 0.5%
same,"powder dissolution compared with other forms, in words",[3],"faster dissolution than the Compound A-Variable-Hydrate Form 2, or Compound A-Anhydrous Form 3, but a slower dissolution than the Amorphous Compound A"
same,"Sol (pH), FaSSGF",[3]; [10],6.3 ± 0.5 μg/mL
same,"Sol (pH), FaSSIF",[3]; [11],62.7 ± 9.0 μg/mL
same,"Sol (pH), FeSSIF",[3]; [12],437.1 ± 16.3 (5.0)^ μg/mL
same,"Sol (pH), Water (first value pair after FeSSIF)",[3],7.9 μg/mL
same,"Sol (pH), Water (second value pair after FeSSIF)",[3],13 μg/mL
same,solubility,[4],~8 mg/mL
same,IDR,[1],2.14 ug/min*cm^2
same,"Sol (pH), FaSSIF",[5]; pH 6.5,104.2 (6.5) μg/mL
same,"exposure compared to Amorphous Compound A, in words","Dog cross-over PK study; dog, PO 10 mg/kg",lower exposure than the Amorphous Compound A form
same,increase in exposure compared to Compound A-Anhydrous Form 3,"Dog cross-over PK study; dog, PO 10 mg/kg",~2 fold
same,AUC(0-t),Dog cross-over PK study; [13],181 ± 79 µM·h
same,Cmax,Dog cross-over PK study; [13],4.7 ± 1.4 µM
same,Tmax,Dog cross-over PK study; [9],6 h
Cc1cc(NC(=O)c2ccc(NS(=O)(=O)CCO)cc2N2CCC3(CC2)CC3)nc(N2CCC(F)(F)CC2)n1 [Compound A-MsA Form 1],DVS weight gain,[2]; listed as Crystalline Compound A-MsA Form 1,about 1.2%
same,DVS weight gain,[2]; listed as crystalline Compound A-MsA Salt Form 1,less than 1.2%
same,"kinetic solubility, dissolution rate and supersaturation in FaSSIF, in words",[5]; listed as Mesylate (A-MsA or A-MSA) Salt Form 1,better than the HCl Salt Form 1
same,"Sol (pH), FaSSIF","[5]; pH 6.5, listed as Cmp A-MSA Form 1",133.0 (6.5) μg/mL
Cc1cc(NC(=O)c2ccc(NS(=O)(=O)CCO)cc2N2CCC3(CC2)CC3)nc(N2CCC(F)(F)CC2)n1 [Compound A-Sulfate Form 1],DVS observation in words,[2]; listed as Crystalline Compound A-Sulfate Form 1,deliquesces at 90% RH
Cc1cc(NC(=O)c2ccc(NS(=O)(=O)CCO)cc2N2CCC3(CC2)CC3)nc(N2CCC(F)(F)CC2)n1 [Compound A-TsA Form 4],"kinetic solubility, dissolution rate and supersaturation in FaSSIF, in words",[5]; listed as Tosylate (A-TsA or A-TSA) Salt Form 4,better than the Mesylate (A-MsA or A-MSA) Salt Form 1
same,"Sol (pH), FaSSIF","[5]; pH 6.5, listed as Cmp A-TSA Form 4",160.6 (6.5) μg/mL
Cc1cc(NC(=O)c2ccc(NS(=O)(=O)CCO)cc2N2CCC3(CC2)CC3)nc(N2CCC(F)(F)CC2)n1 [Compound A-Variable Hydrate Form 2],DVS weight gain,[2],about 3.4%
same,"Sol (pH), FaSSGF",[3]; [10],20 μg/mL
same,"Sol (pH), FaSSIF",[3]; [11],10.6 μg/mL
same,"Sol (pH), FeSSIF",[3]; [12],144.5(5.0)^ μg/mL
same,"Sol (pH), Water (first value pair after FeSSIF)",[3],243 μg/mL
same,"Sol (pH), Water (second value pair after FeSSIF)",[3],23 μg/mL
same,IDR,[1]; listed as Cmp A-Variable Hydrate Form 2,0.42 ug/min*cm^2
same,"solubility, in words",[6],very low solubility
